Reference: ChEMBL document CHEMBL1149262, “Monoamine transporter binding, locomotor activity, and drug discrimination properties of 3-(4-substituted-phenyl)tropane-2-carboxylic acid methyl ester isomers” (J Med Chem, 2004)
Active and inactive are the calls of the source. The rule behind the calls is not given here.

Assays:
Mus musculus [1] = assay: Locomotor activity in CD1 mouse assessed as stimulation at 1 mg/kg, ip after 1 hr relative to control; assay type: functional; conditions: route intraperitoneal
Mus musculus [2] = assay: Locomotor activity in CD1 mouse assessed as stimulation at 1 mg/kg, ip after 2 hrs relative to control; assay type: functional; conditions: route intraperitoneal
Mus musculus [3] = assay: Locomotor activity in CD1 mouse assessed as stimulation at 1 mg/kg, ip after 3 hrs relative to control; assay type: functional; conditions: route intraperitoneal
Mus musculus [4] = assay: Locomotor activity in CD1 mouse assessed as stimulation at 1 mg/kg, ip after 4 hrs relative to control; assay type: functional; conditions: route intraperitoneal
Rattus norvegicus [5] = assay: Cocaine discrimination in ip dosed CD Albino rat; assay type: functional
Rattus norvegicus [6] = assay: Drug discrimination effect in CD Albino rat assessed as percent of rat choosing cocaine lever at 3 mg/kg, ip; assay type: functional; conditions: route intraperitoneal
Rattus norvegicus [7] = assay: Drug discrimination effect in CD Albino rat assessed as percent of rat choosing cocaine lever at 5.6 mg/kg, ip; assay type: functional; conditions: route intraperitoneal
Rattus norvegicus [8] = assay: Drug discrimination effect in CD Albino rat assessed as percent of rat choosing cocaine lever at 10 mg/kg, ip; assay type: functional; conditions: route intraperitoneal
Rattus norvegicus [9] = assay: Drug discrimination effect in CD Albino rat assessed as percent of rat choosing cocaine lever at 17 mg/kg, ip; assay type: functional; conditions: route intraperitoneal
Mus musculus [10] = assay: Activity in CD1 mouse assessed as slight or intermittent stereotypy at 10 mg/kg, ip after 4 hrs; assay type: functional, organism-based; design: dose 10 mg/kg
Mus musculus [11] = assay: Activity in CD1 mouse assessed as stereotypy at 100 mg/kg, ip after 4 hrs; assay type: functional, organism-based; design: dose 100 mg/kg
Mus musculus [12] = assay: Activity in CD1 mouse assessed as circling at 100 mg/kg, ip after 4 hrs; assay type: functional, organism-based; design: dose 100 mg/kg
Mus musculus [13] = assay: Activity in CD1 mouse assessed as convulsions at 100 mg/kg, ip after 4 hrs; assay type: functional, organism-based; design: dose 100 mg/kg
Mus musculus [14] = assay: Activity in CD1 mouse assessed as tremor at 100 mg/kg, ip after 4 hrs; assay type: functional, organism-based; design: dose 100 mg/kg
Mus musculus [15] = assay: Activity in CD1 mouse assessed as hypoactivity at 100 mg/kg, ip after 4 hrs; assay type: functional, organism-based; design: dose 100 mg/kg
[16] = biological target: Sodium-dependent noradrenaline transporter (Homo sapiens, UniProt P23975); assay: Displacement of [3H]nisoxetine from NET
Sodium-dependent noradrenaline transporter, sequence (P23975 whole entry): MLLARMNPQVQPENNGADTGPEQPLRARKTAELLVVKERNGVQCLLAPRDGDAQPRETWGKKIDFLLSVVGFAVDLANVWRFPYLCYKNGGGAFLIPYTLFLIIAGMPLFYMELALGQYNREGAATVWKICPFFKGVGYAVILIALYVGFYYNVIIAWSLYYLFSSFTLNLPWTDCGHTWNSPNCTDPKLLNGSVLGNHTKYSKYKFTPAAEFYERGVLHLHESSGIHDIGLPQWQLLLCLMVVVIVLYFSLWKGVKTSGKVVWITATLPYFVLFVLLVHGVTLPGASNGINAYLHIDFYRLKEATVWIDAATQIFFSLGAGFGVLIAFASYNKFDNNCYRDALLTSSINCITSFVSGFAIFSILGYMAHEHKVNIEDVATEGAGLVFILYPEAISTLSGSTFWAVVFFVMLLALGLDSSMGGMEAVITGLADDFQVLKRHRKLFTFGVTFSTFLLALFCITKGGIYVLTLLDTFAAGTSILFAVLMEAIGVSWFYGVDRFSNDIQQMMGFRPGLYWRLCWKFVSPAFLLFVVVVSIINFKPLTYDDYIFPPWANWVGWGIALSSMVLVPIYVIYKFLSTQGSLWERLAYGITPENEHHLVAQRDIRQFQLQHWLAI

Mus musculus [17] = assay: Locomotor activity in ip dosed CD1 mouse in peak hour; assay type: functional
Mus musculus [18] = assay: Locomotor activity in CD1 mouse assessed as stimulation at 3 mg/kg, ip after 1 hr relative to control; assay type: functional; conditions: route intraperitoneal
Mus musculus [19] = assay: Locomotor activity in CD1 mouse assessed as stimulation at 3 mg/kg, ip after 2 hrs relative to control; assay type: functional; conditions: route intraperitoneal
Mus musculus [20] = assay: Locomotor activity in CD1 mouse assessed as stimulation at 3 mg/kg, ip after 3 hrs relative to control; assay type: functional; conditions: route intraperitoneal
Mus musculus [21] = assay: Locomotor activity in CD1 mouse assessed as stimulation at 3 mg/kg, ip after 4 hrs relative to control; assay type: functional; conditions: route intraperitoneal
Mus musculus [22] = assay: Locomotor activity in CD1 mouse assessed as stimulation at 10 mg/kg, ip after 1 hr relative to control; assay type: functional; conditions: route intraperitoneal
Mus musculus [23] = assay: Locomotor activity in CD1 mouse assessed as stimulation at 10 mg/kg, ip after 2 hrs relative to control; assay type: functional; conditions: route intraperitoneal
Mus musculus [24] = assay: Locomotor activity in CD1 mouse assessed as stimulation at 10 mg/kg, ip after 3 hrs relative to control; assay type: functional; conditions: route intraperitoneal
Mus musculus [25] = assay: Locomotor activity in CD1 mouse assessed as stimulation at 10 mg/kg, ip after 4 hrs relative to control; assay type: functional; conditions: route intraperitoneal
Mus musculus [26] = assay: Locomotor activity in CD1 mouse assessed as stimulation at 30 mg/kg, ip after 1 hr relative to control; assay type: functional; conditions: route intraperitoneal
Mus musculus [27] = assay: Locomotor activity in CD1 mouse assessed as stimulation at 30 mg/kg, ip after 2 hrs relative to control; assay type: functional; conditions: route intraperitoneal
Mus musculus [28] = assay: Locomotor activity in CD1 mouse assessed as stimulation at 30 mg/kg, ip after 3 hrs relative to control; assay type: functional; conditions: route intraperitoneal
Mus musculus [29] = assay: Locomotor activity in CD1 mouse assessed as stimulation at 30 mg/kg, ip after 4 hrs relative to control; assay type: functional; conditions: route intraperitoneal
[30] = biological target: Sodium-dependent serotonin transporter (Homo sapiens, UniProt P31645)
Sodium-dependent serotonin transporter, sequence (P31645 whole entry): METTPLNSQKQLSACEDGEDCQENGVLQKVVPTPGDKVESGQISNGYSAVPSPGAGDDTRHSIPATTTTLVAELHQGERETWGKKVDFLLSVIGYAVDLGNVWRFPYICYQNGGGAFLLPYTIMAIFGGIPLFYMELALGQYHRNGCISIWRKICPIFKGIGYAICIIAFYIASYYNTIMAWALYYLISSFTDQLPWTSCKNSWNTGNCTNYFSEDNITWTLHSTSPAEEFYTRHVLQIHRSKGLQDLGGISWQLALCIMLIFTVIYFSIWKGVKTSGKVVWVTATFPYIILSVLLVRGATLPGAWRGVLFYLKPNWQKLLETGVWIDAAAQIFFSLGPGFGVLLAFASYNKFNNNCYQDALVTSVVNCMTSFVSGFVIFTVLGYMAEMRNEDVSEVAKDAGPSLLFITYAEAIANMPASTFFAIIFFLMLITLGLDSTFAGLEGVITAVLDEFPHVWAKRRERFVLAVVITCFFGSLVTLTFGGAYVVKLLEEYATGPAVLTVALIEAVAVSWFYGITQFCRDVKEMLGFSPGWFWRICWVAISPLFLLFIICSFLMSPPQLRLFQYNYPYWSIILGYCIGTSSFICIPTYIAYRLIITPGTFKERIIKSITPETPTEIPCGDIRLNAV
Description: Displacement of [3H]paroxetine from 5HTT

Mus musculus [31] = assay: Locomotor activity in CD1 mouse assessed as stimulation at 0.3 mg/kg, ip after 1 hr relative to control; assay type: functional; conditions: route intraperitoneal
Mus musculus [32] = assay: Locomotor activity in CD1 mouse assessed as stimulation at 0.3 mg/kg, ip after 2 hrs relative to control; assay type: functional; conditions: route intraperitoneal
Mus musculus [33] = assay: Locomotor activity in CD1 mouse assessed as stimulation at 0.3 mg/kg, ip after 3 hrs relative to control; assay type: functional; conditions: route intraperitoneal
Mus musculus [34] = assay: Locomotor activity in CD1 mouse assessed as stimulation at 0.3 mg/kg, ip after 4 hrs relative to control; assay type: functional; conditions: route intraperitoneal
Mus musculus [35] = assay: Locomotor activity in CD1 mouse assessed as stimulation at 0.1 mg/kg, ip after 1 hr relative to control; assay type: functional; conditions: route intraperitoneal
Mus musculus [36] = assay: Locomotor activity in CD1 mouse assessed as stimulation at 0.1 mg/kg, ip after 2 hrs relative to control; assay type: functional; conditions: route intraperitoneal
Mus musculus [37] = assay: Locomotor activity in CD1 mouse assessed as stimulation at 0.1 mg/kg, ip after 3 hrs relative to control; assay type: functional; conditions: route intraperitoneal
Mus musculus [38] = assay: Locomotor activity in CD1 mouse assessed as stimulation at 0.1 mg/kg, ip after 4 hrs relative to control; assay type: functional; conditions: route intraperitoneal
Rattus norvegicus [39] = assay: Drug discrimination effect in CD Albino rat assessed as percent of rat choosing cocaine lever at 0.17 mg/kg, ip; assay type: functional; conditions: route intraperitoneal
Rattus norvegicus [40] = assay: Drug discrimination effect in CD Albino rat assessed as percent of rat choosing cocaine lever at 0.3 mg/kg, ip; assay type: functional; conditions: route intraperitoneal
Mus musculus [41] = assay: Activity in CD1 mouse assessed as hyperactivity at 1 mg/kg, ip after 4 hrs; assay type: functional, organism-based; design: dose 1 mg/kg
Mus musculus [42] = assay: Activity in CD1 mouse assessed as stereotypy at 1 mg/kg, ip after 4 hrs; assay type: functional, organism-based; design: dose 1 mg/kg
Mus musculus [43] = assay: Activity in CD1 mouse assessed as circling at 1 mg/kg, ip after 4 hrs; assay type: functional, organism-based; design: dose 1 mg/kg
Mus musculus [44] = assay: Activity in CD1 mouse assessed as stereotypy at 10 mg/kg, ip after 4 hrs; assay type: functional, organism-based; design: dose 10 mg/kg
Mus musculus [45] = assay: Activity in CD1 mouse assessed as circling at 10 mg/kg, ip after 4 hrs; assay type: functional, organism-based; design: dose 10 mg/kg
Mus musculus [46] = assay: Activity in CD1 mouse assessed as slight or intermittent hyperactivity at 10 mg/kg, ip after 4 hrs; assay type: functional, organism-based; design: dose 10 mg/kg
Mus musculus [47] = assay: Activity in CD1 mouse assessed as hind limb splay at 100 mg/kg, ip after 4 hrs; assay type: functional, organism-based; design: dose 100 mg/kg; conditions: Hindlimb
Mus musculus [48] = assay: Activity in CD1 mouse assessed as death at 100 mg/kg, ip after 4 hrs; assay type: functional, organism-based; design: dose 100 mg/kg
Mus musculus [49] = assay: Activity in CD1 mouse assessed as slight or intermittent hyperactivity at 100 mg/kg, ip after 4 hrs; assay type: functional, organism-based; design: dose 100 mg/kg
[50] = biological target: Sodium-dependent dopamine transporter (Homo sapiens, UniProt Q01959); assay: Displacement of [3H]WIN-35428 from DAT
Sodium-dependent dopamine transporter, sequence (Q01959 whole entry): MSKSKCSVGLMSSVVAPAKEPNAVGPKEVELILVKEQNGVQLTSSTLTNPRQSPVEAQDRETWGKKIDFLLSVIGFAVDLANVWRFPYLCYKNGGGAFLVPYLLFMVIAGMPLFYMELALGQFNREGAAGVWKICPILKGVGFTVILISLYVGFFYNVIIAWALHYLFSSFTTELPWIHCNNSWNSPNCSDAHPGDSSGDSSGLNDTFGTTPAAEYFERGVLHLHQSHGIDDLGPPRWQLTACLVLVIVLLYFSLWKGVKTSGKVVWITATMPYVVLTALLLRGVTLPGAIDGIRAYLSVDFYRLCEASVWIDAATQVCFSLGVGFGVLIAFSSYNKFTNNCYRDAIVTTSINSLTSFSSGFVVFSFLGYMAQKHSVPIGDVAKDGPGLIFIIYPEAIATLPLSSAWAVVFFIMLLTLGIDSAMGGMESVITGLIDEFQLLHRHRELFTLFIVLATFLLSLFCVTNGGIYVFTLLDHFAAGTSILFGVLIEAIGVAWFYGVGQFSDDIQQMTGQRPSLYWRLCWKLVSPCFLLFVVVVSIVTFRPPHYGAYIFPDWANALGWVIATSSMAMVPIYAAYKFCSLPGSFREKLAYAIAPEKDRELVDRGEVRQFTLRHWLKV

Rattus norvegicus [51] = assay: Drug discrimination effect in CD Albino rat assessed as percent of rat choosing cocaine lever at 0.1 mg/kg, ip; assay type: functional; conditions: route intraperitoneal
Mus musculus [52] = assay: Locomotor activity in ip dosed CD1 mouse after 1 hr relative to cocaine; assay type: functional
Mus musculus [53] = assay: Activity in CD1 mouse assessed as stimulation at 100 mg/kg, ip after 4 hrs; assay type: functional, organism-based; design: dose 100 mg/kg
Mus musculus [54] = assay: Activity in CD1 mouse assessed as ataxia at 100 mg/kg, ip after 4 hrs; assay type: functional, organism-based; design: dose 100 mg/kg

## COC(=O)[C@H]1C2CCC(C[C@@H]1c1ccc(F)cc1)N2C (stereo partly specified)
Mus musculus [1]
  Activity: -10%
Mus musculus [2]
  Activity: 5%
Mus musculus [3]
  Activity: 52%
Mus musculus [4]
  Activity: 28%
Rattus norvegicus [5]
  ED50: 8.01 mg/kg
Rattus norvegicus [6]
  Activity: 0%
Rattus norvegicus [7]
  Activity: 33%
Rattus norvegicus [8]
  Activity: 57%
Rattus norvegicus [9]
  Activity: 100%
Mus musculus [10]
  Activity: Active
Mus musculus [11]
  Activity: Active
Mus musculus [12]
  Activity: Active
Mus musculus [13]
  Activity: Active
Mus musculus [14]
  Activity: Active
Mus musculus [15]
  Activity: Active
[16]
  IC50: 7200 nM
  Ki: 4340 nM
Mus musculus [17]
  ED50: 2.4 mg/kg
Mus musculus [18]
  Activity: 15%
Mus musculus [19]
  Activity: 58%
Mus musculus [20]
  Activity: 120%
Mus musculus [21]
  Activity: 19%
Mus musculus [22]
  Activity: 58%
Mus musculus [23]
  Activity: 107%
Mus musculus [24]
  Activity: 260%
Mus musculus [25]
  Activity: 196%
Mus musculus [26]
  Activity: 24%
Mus musculus [27]
  Activity: 207%
Mus musculus [28]
  Activity: 298%
Mus musculus [29]
  Activity: 127%
[30]
  IC50: > 10000 nM

## COC(=O)[C@@H]1C2CC[C@H](C[C@@H]1c1ccc(I)cc1)N2C
Mus musculus [31]
  Activity: 415%
Mus musculus [32]
  Activity: 1765%
Mus musculus [33]
  Activity: 1289%
Mus musculus [34]
  Activity: 900%
Mus musculus [1]
  Activity: 1489%
Mus musculus [2]
  Activity: 1721%
Mus musculus [3]
  Activity: 2099%
Mus musculus [4]
  Activity: 2546%
Mus musculus [35]
  Activity: -12%
Mus musculus [36]
  Activity: 38%
Mus musculus [37]
  Activity: -25%
Mus musculus [38]
  Activity: 62%
Rattus norvegicus [5]
  ED50: 0.2 mg/kg
Rattus norvegicus [39]
  Activity: 25%
Rattus norvegicus [40]
  Activity: 100%
Mus musculus [41]
  Activity: Active
Mus musculus [42]
  Activity: Active
Mus musculus [43]
  Activity: Active
Mus musculus [44]
  Activity: Active
Mus musculus [45]
  Activity: Active
Mus musculus [46]
  Activity: Active
Mus musculus [11]
  Activity: Active
Mus musculus [47]
  Activity: Active
Mus musculus [48]
  Activity: Active
Mus musculus [49]
  Activity: Active
[50]
  IC50: 1.3 nM
[16]
  IC50: 36 nM
  Ki: 22 nM
Mus musculus [17]
  ED50: 0.4 mg/kg
Mus musculus [18]
  Activity: 770%
Mus musculus [19]
  Activity: 145%
Mus musculus [20]
  Activity: 327%
Mus musculus [21]
  Activity: 794%
Rattus norvegicus [51]
  Activity: 22%
Mus musculus [52]
  Ratio: 4.4
[30]
  Ki: 0.38 nM

## COC(=O)[C@H]1C2CCC(C[C@@H]1c1ccccc1)N2C (stereo partly specified)
Mus musculus [1]
  Activity: 9%
Mus musculus [2]
  Activity: 35%
Mus musculus [3]
  Activity: 12%
Mus musculus [4]
  Activity: -60%
Rattus norvegicus [5]
  ED50: 7.66 mg/kg
Rattus norvegicus [7]
  Activity: 29%
Rattus norvegicus [8]
  Activity: 67%
Rattus norvegicus [9]
  Activity: 100%
Mus musculus [12]
  Activity: Active
Mus musculus [47]
  Activity: Active
Mus musculus [53]
  Activity: Active
Mus musculus [13]
  Activity: Active
Mus musculus [14]
  Activity: Active
Mus musculus [54]
  Activity: Active
[50]
  IC50: 670 nM
[16]
  IC50: > 10000 nM
Mus musculus [17]
  ED50: 11.7 mg/kg
Mus musculus [18]
  Activity: -14%
Mus musculus [19]
  Activity: -20%
Mus musculus [20]
  Activity: -9%
Mus musculus [21]
  Activity: -50%
Mus musculus [22]
  Activity: 35%
Mus musculus [23]
  Activity: 16%
Mus musculus [24]
  Activity: -16%
Mus musculus [25]
  Activity: -27%
Mus musculus [26]
  Activity: 138%
Mus musculus [27]
  Activity: 122%
Mus musculus [28]
  Activity: 69%
Mus musculus [29]
  Activity: 12%
